# Key:
# [1] = tested on: rats; assay: Antinociception, hot plate test after epidural (or subcutaneous) dose; format: in vivo, Sprague-Dawley rats; conditions: 250 μg epidural
# Procedure: Baseline values of nociception following placement of the epidural catheter were determined by subjecting the animals to standard hot plate (52.5±0.5° C.) testing as described in M. S. Wallace et al., (Anesth. Analg. 79:778-786, 1994). Response latency to nociception (in seconds) was measured from the time when the animals were placed on the hot plate to the time when they either licked their hind paw or jumped. The baseline (pretreatment) response latency value was defined as 0% of the maximum possible analgesia (MPA) in each experimental animal. […] Following epidural administration of the test solutions via the catheter emplanted as described above, the epidural catheter was flushed with 10 μl of 0.9% sodium chloride.
# Antinociception was determined in 5 or 6 animals for each dose and each drug. To prevent tissue damage to the footpads, a cutoff time of 60 seconds was used. Accordingly, 100% MPA was defined as antinociception lasting ≧60 seconds.
# Efficacy and respiratory depression curves were plotted as a function of time for each dose administered. Hot plate responses were calculated as a percentage of the maximum possible analgesia (%MPA) as described in Wallace et al. (supra): [formula]
# All areas under the curves were calculated by the trapezoidal rule to the last data point using the RSTRIP computer program [Micromath, Salt Lake City, Utah]. […]
# [2] = tested on: rats; assay: Respiratory depression quantified by pulse oximetry (SpO2) after single epidural bolus; conditions: for respiratory depression (decrease in SpO2): single epidural dose 10 to 2000 μg, sulfate
# Procedure: Respiratory depression was quantified by pulse oximetry. The animals were removed from their cages, placed in polystyrene rat restraints (Plas Labs, Lansing, Mich.) and allowed to acclimate for 5 minutes. […] Pulse oximetry was performed on 5 to 6 animals at each data point, except for the 50 μg dose where 3 animals were used. The pulse oximetry values of percent hemoglobin oxygen saturation (SpO2) were monitored continuously in real time. The maximum value obtaining during the 3-minute recording period was defined as oxygen saturation.
smiles,measurement,setting,value
"CN1CC[C@]23c4c5ccc(O)c4O[C@H]2[C@@H](O)C=C[C@H]3[C@H]1C5.O=S(=O)(O)O [MS, morphine sulfate]",peak effect (% of maximum possible analgesia),[1],~100 % MPA
same,time to decrease to 50% MPA,[1],0.17 days
same,delayed respiratory depression,[2]; single epidural dose,no delayed respiratory depression
same,respiratory depression (decrease in SpO2),[2]; listed as free morphine,did cause respiratory suppression at high dosages
same,respiratory depression (decrease in SpO2),[2],dose-dependent increase in respiratory depression

# Source: patent publication US6428529B1, “Epidural administration of therapeutic compounds with sustained rate of release” (SkyePharma Inc., priority 1995, dated 2002)
